Tests used:
primates = settings: cited from earlier work
mice = settings: mouse, in vivo; cited from earlier work
guinea-pigs = settings: guinea pig, in vivo; cited from earlier work
rat hepatocytes = assay: in vitro metabolism in rat hepatocytes in suspension (GC-MS); format: in vitro ADME; settings: incubated with hepatocytes isolated from rats, 'substantially no' = below limit of detection, i.e. <1%
From the text: Decrease of Lilial™ and the compound released by the precursor of the present invention, and formation of the corresponding benzoic acid derivative may be analysed by GC-MS.
By “substantially no benzoic acid derivative” is meant that the concentration of said derivative is below the limit of detection, i.e. <1%. As such, the precursor releasing the compound of formula (I) provides perfumers with an eminently suitable surrogate for the valuable yet problematic Lilial™.

SMILES	effects (reproductive toxicity) (primates)	effects (reproductive toxicity) (mice)	effects (reproductive toxicity) (guinea-pigs)	enzymatic degradation to / formation of the corresponding benzoic acid derivative (rat hepatocytes)	enzymatic degradation to / formation of the corresponding benzoic acid derivative (rat hepatocytes; listed as compound released by the precursor of the present invention)
CC(C=O)Cc1ccc(C(C)(C)C)cc1 (centres unmarked) [Lilial™, 3-(4-tert-butylphenyl)-2-methylpropanal]	No effects	No effects	No effects		
Cc1cc(CC(C)C)ccc1CCC=O [compound of formula (I), 3-(4-isobutyl-2-methylphenyl)propanal]				no, or substantially no	not susceptible

From US10047031B2, “Organic compounds” (GIVAUDAN SA, priority 2014, dated 2018)
